Test results from ChEMBL document CHEMBL3994566 (Medchemcomm, 2016).
pKd: −log10 of the molar value.

Tests used:
CCR5 = assay: Selectivity index, ratio of CC50 for human TZM-bl cells to EC50 for CCR5 in human TZM-bl cells infected with CCR5-tropic HIV-1 Bal assessed as inhibition of viral entry; assay type: toxicity, cell-based; conditions: read-out: Ratio CC50/EC50
[1] = Binding affinity to HIV1 integrase by surface plasma resonance method; design: species or system Human immunodeficiency virus
TZM = assay: Cytotoxicity against human TZM-bl cells after 3 days by XTT assay; assay type: cell-based; conditions: 72 h

pKd [1]	SMILES	selectivity ratio (CCR5)	Activity (TZM)
–	CC(=O)Oc1ccc(/C=C/C(=O)CCc2ccc(NC(=O)c3ccc(C)cc3)cc2)cc1OC(C)=O	2	–
–	CC(=O)Oc1ccc(CCC(=O)CCc2ccc(NC(=O)c3ccc([N+](=O)[O-])cc3)cc2)cc1OC(C)=O	15	–
–	Cc1ccc(C(=O)Nc2ccc(CCC(=O)/C=C/c3ccc(O)c(O)c3)cc2)cc1	< 1	–
–	Cc1ccc(C(=O)Nc2ccc(CCC(=O)CCc3ccc(O)c(O)c3)cc2)cc1	5	–
–	COc1ccc(C(=O)Nc2ccc(CCC(=O)CCc3ccc(OC(C)=O)c(OC(C)=O)c3)cc2)cc1	21	–
–	CC(=O)Oc1ccc(/C=C/C(=O)CCc2ccc(NC(=O)c3ccc([N+](=O)[O-])cc3)cc2)cc1OC(C)=O	5	–
4.05	O=C(/C=C/c1ccc(O)c(O)c1)CCc1ccc(NC(=O)C2CCCCC2)cc1	< 3	–
–	O=C(CCc1ccc(NC(=O)Cc2cccs2)cc1)CCc1ccc(O)c(O)c1	8	–
3.96	O=C(CCc1ccc(NC(=O)c2ccccc2)cc1)CCc1ccc(O)c(O)c1	26	–
4.21	O=C(/C=C/c1ccc(O)c(O)c1)CCc1ccc(NC(=O)Cc2cccs2)cc1	< 2	–
–	COc1ccc(C(=O)Nc2ccc(CCC(=O)/C=C/c3ccc(OC(C)=O)c(OC(C)=O)c3)cc2)cc1	12	–
–	O=C(/C=C/c1ccc(O)c(O)c1)CCc1ccc(NC(=O)c2ccc([N+](=O)[O-])cc2)cc1	< 1	–
4.09	O=C(CCc1ccc(NC(=O)C2CCCCC2)cc1)CCc1ccc(O)c(O)c1	10	–
–	CC(=O)Oc1ccc(CCC(=O)CCc2ccc(NC(=O)C3CCCCC3)cc2)cc1OC(C)=O	14	–
–	CC(=O)Oc1ccc(CCC(=O)CCc2ccc(NC(=O)c3ccc(C)cc3)cc2)cc1OC(C)=O	9	–
–	CC(=O)Oc1ccc(/C=C/C(=O)CCc2ccc(NC(=O)C3CCCCC3)cc2)cc1OC(C)=O	5	–
–	COc1ccc(C(=O)Nc2ccc(CCC(=O)CCc3ccc(O)c(O)c3)cc2)cc1	< 5	–
5.62	CC(=O)Oc1ccc(CCC(=O)CCc2ccc(NC(=O)c3ccccc3)cc2)cc1OC(C)=O	110	Non-Toxic
3.79	O=C(/C=C/c1ccc(O)c(O)c1)CCc1ccc(NC(=O)c2ccccc2)cc1	< 1	–
–	CC(=O)Oc1ccc(CCC(=O)CCc2ccc(NC(=O)Cc3cccs3)cc2)cc1OC(C)=O	17	–
4.36	COc1ccc(C(=O)Nc2ccc(CCC(=O)/C=C/c3ccc(O)c(O)c3)cc2)cc1	7	–
–	CC(=O)Oc1ccc(/C=C/C(=O)CCc2ccc(NC(=O)c3ccccc3)cc2)cc1OC(C)=O	< 5	–
–	CC(=O)Oc1ccc(/C=C/C(=O)CCc2ccc(NC(=O)Cc3cccs3)cc2)cc1OC(C)=O	< 1	–
–	O=C(CCc1ccc(NC(=O)c2ccc([N+](=O)[O-])cc2)cc1)CCc1ccc(O)c(O)c1	6	–
–	Cc1nnc(C(C)C)n1[C@@H]1C[C@H]2CC[C@@H](C1)N2CC[C@H](NC(=O)C1CCC(F)(F)CC1)c1ccccc1 [MARAVIROC]	> 1e+06	–
